Measured values from patent US4708966A, “Novel anti-inflammatory agents, pharmaceutical compositions and methods for reducing inflammation” (The Procter & Gamble Company, priority 1986, dated 1987).

Experiments:
[1] = test system: oxazolone-induced inflamed mouse ear; test: Oxazolone-Induced Inflamed Mouse Ear Test (Ox-IMET); type: in vivo, Adult male Cox ICR mice; settings: topical, 25 ul of 10% in ethanol, 24 h after challenge, vs control group, read-out: Percent Inhibition
Description: Oxazolone-Induced Inflamed Mouse Ear Test ("Ox-IMET")
Adult male Cox ICR mice, 25-35 g, are sensitized by applying 3% oxazolone in olive oil to the clipped abdomen of each animal using a cotton swab. One week later, the mice are challenged on the inner surface of the left ear with 3% oxazolone in aceotone. At the same time 25 ul of the test compound (10% in ethanol) is applied to the outer surface of the same ear. Twenty four hours after the challenge, the animals are sacrificed by cervical dislocation and both ears are removed. A 5 mm punch biopsy is removed from both ears and is weighed to the nearest 0.1 mg on a Cahn electrobalance. Ten animals are used per group. The study usually consists of 4 to 6 groups, of which one is a control group which is challenged on the left ear, but is not treated with a test compound. The results are expressed as percent inhibition of the swelling response compared to the control group. Statistical tests for significance between groups are made using a one way analysis of variance of the ear weight differences.

[2] = test system: carrageenan rat paw edema; test: Carrageenan Rat Paw Edema Test; type: in vivo, Male Sprague-Dawley rats; settings: for ED35: 4 h, oral, by regression analysis, read-out: ID35; for inhibition in vivo at 100 mg/kg: po, 100 mg/kg P.O., paw volume 4 h after carrageenan, vs control group, read-out: Percent Inhibiton at 100 mg/kg dose P.O
Description: Carrageenan Rat Paw Edema Test
Male Sprague-Dawley rats (Charles River Laboratories) are weighed and food fasted overnight. The animals are then divided into four to six groups of six animals each according to body weights (average about 145 g) so that each group has about the same average body weight (within 10 g).
The following morning animals are dosed with the test compound and then placed in individual cages. For oral dosing, the drug is suspended in 0.5% methyl cellulose with 2% Tween 80, and delivered via stomach tube in a 5 ml volume.
Paw volumes (0 time) are determined on both hind paws with a mercury displacement device equipped with a transducer and digitizer. One hour after dosing the test compound, the animals are placed in a plastic restrainer and 50 ul of a 1% (w/w) carrageenan solution in 0.9% saline is injected into the ventral surface of the left rear paw. Four hours after the carrageenan injection, the paw volumes are again determined.
The results are expressed as percent inhibition of the mean paw volume of the test group relative to the control group. Statistical differences are determined by one way analysis of variance. ID35 values are determined by regression analysis.

[3] = test system: arachidonic acid-induced inflamed mouse ear; test: Arachidonic Acid-Induced Inflamed Mouse Ear Test; type: in vivo, Adult male Cox ICR mice; settings: for inhibition in vivo at 50 µg/ear: Mus musculus, 50 ug/ear topical, 3 hours, read-out: Percent Inhibition at 50 ug/ear topical dose; for ID50: topical, by regression analysis
Description: Arachidonic Acid-Induced Inflamed Mouse Ear Test
All drugs are dissolved with arachidonic acid in the vehicle. At the end of 3 hours, animals are sacrificed by cervical dislocation and both ears are removed. A 5 mm punch biopsy is removed from both ears and is weighed to the nearest 0.1 mg on a Cahn electrobalance. Ten animals are used per group. The study usually consists of 4 to 6 groups, of which one is a control group which is treated on the left ear with only arachidonic acid in the vehicle. The results are expressed as percent inhibition of the swelling response compared to the control group. Statistical tests for significance between groups are made using a one way analysis of variance of the ear weight differences. ID50 values are determined by regression analysis.

SMILES: C=CCCC(=O)c1cc(C(C)(C)C)c(O)c(C(C)(C)C)c1 [Compound 6, 4-(4'-pentenoyl)-2,6-di-t-butylphenol]
- inhibition in vivo at 10 % [1]: 46%
- ED35 [2]: 3.3 mg/kg
- inhibition in vivo at 100 mg/kg [2]: 71.2%

SMILES: C#CCC(=O)c1cc(C(C)(C)C)c(O)c(C(C)(C)C)c1 [Compound 3, 4-(3'-butynoyl)-2,6-di-t-butylphenol]
- inhibition in vivo at 50 µg/ear [3]: 61.6%
- ID50 [3]: 22.7 ug/ear
- ED35 [2]: 9.9 mg/kg
- inhibition in vivo at 100 mg/kg [2]: 66.9%

SMILES: C=C=CC(=O)c1cc(C(C)(C)C)c(O)c(C(C)(C)C)c1 [Compound 4, 4-butadienoyl-2,6-di-t-butylphenol]
- inhibition in vivo at 50 µg/ear [3]: 79.6%
- ID50 [3]: 6.6 ug/ear
- inhibition in vivo at 100 mg/kg [2]: 64.9%

SMILES: C#CCCCC(=O)c1cc(C(F)(F)F)cc(C(F)(F)F)c1 [Compound 22, 1-(5'-hexynoyl)-3,5-bis(trifluoromethyl)benzene]
- inhibition in vivo at 100 mg/kg [2]: 47%

SMILES: C#CCC(C)(C)CC(=O)c1cc(C(C)(C)C)c(O)c(C(C)(C)C)c1 [Compound 35, 4-(3',3'-dimethyl-5'-hexynoyl)-2,6-di-t-butylphenol]
- inhibition in vivo at 100 mg/kg [2]: 61.1%

SMILES: C#CCCCC(=C)c1cc(C(C)(C)C)c(O)c(C(C)(C)C)c1 [Compound 16, 4-(1'-methylidene-5'-hexynyl)-2,6-di-t-butylphenol]
- inhibition in vivo at 10 % [1]: 30.3%
- inhibition in vivo at 100 mg/kg [2]: 25.7%

SMILES: C#CCCC(=O)c1cc(C(C)(C)C)c(O)c(C(C)(C)C)c1 [Compound 5, 4-(4'-pentynoyl)-2,6-di-t-butylphenol]
- inhibition in vivo at 10 % [1]: 25.3%
- ED35 [2]: 8.1 mg/kg
- inhibition in vivo at 100 mg/kg [2]: 61.3%

SMILES: C=CCCCC(=O)c1cc(C(C)(C)C)c(O)c(C(C)(C)C)c1 [Compound 12, 4-(5'-hexenoyl)-2,6-di-t-butylphenol]
- inhibition in vivo at 10 % [1]: 29.7%
- ED35 [2]: 11.4 mg/kg
- inhibition in vivo at 100 mg/kg [2]: 59.9%

SMILES: C#CCCCCCC(=O)c1cc(C(C)(C)C)c(O)c(C(C)(C)C)c1 [Compound 26, 4-(7'-octynoyl)-2,6-di-t-butylphenol]
- ED35 [2]: 110 mg/kg
- inhibition in vivo at 100 mg/kg [2]: 43.3%

SMILES: C#CCCC(C)C(=O)c1cc(C(C)(C)C)c(O)c(C(C)(C)C)c1 (stereo not shown) [Compound 13, 4-(2'-methyl-5'-hexynoyl)-2,6-di-t-butylphenol]
- inhibition in vivo at 50 µg/ear [3]: 74.4%
- ID50 [3]: 17.5 ug/ear
- ED35 [2]: 17.9 mg/kg
- inhibition in vivo at 100 mg/kg [2]: 69.8%

SMILES: C#CCC(CC#C)C(=O)CCc1cc(C(C)(C)C)c(O)c(C(C)(C)C)c1 [Compound 25, 4-(4'-(2"-propynyl)-6'-heptyn-3'-one)-2,6-di-t-butylphenol]
- inhibition in vivo at 10 % [1]: 40.4%

SMILES: COC(CC(=O)CCc1cc(C(C)(C)C)c(O)c(C(C)(C)C)c1)OC [Compound 34, 4-(5',5'-dimethoxy-3'-pentanone)-2,6-di-t-butylphenol]
- inhibition in vivo at 100 mg/kg [2]: 66.1%

SMILES: C#CCCCCc1cc(C(C)(C)C)c(O)c(C(C)(C)C)c1 [Compound 15, 4-(5'-hexynyl)-2,6-di-t-butylphenol]
- inhibition in vivo at 10 % [1]: 39.6%
- ED35 [2]: 55.2 mg/kg
- inhibition in vivo at 100 mg/kg [2]: 75.7%

SMILES: C#CC(O)c1cc(C(C)(C)C)c(O)c(C(C)(C)C)c1 (stereo not shown) [Compound 2, 4-(1'-hydroxy-2'-propynyl)-2,6-di-t-butylphenol]
- inhibition in vivo at 10 % [1]: 27.3%
- ED35 [2]: 46.8 mg/kg
- inhibition in vivo at 100 mg/kg [2]: 75.6%

SMILES: C#CCCC(=O)CCc1cc(C(C)(C)C)c(O)c(C(C)(C)C)c1 [Compound 24, 4-(6'-heptyn-3'-one)-2,6-di-t-butylphenol]
- inhibition in vivo at 10 % [1]: 38.2%

SMILES: COC(CC(=O)c1cc(C(C)(C)C)c(O)c(C(C)(C)C)c1)OC [Compound 29, 4-(3',3'-dimethoxypropionyl)-2,6-di-t-butylphenol]
- ED35 [2]: 28.2 mg/kg
- inhibition in vivo at 100 mg/kg [2]: 70.7%

SMILES: C#CC(=O)CCc1cc(C(C)(C)C)c(O)c(C(C)(C)C)c1 [Compound 10, 4-(4'-pentyn-3'-one)-2,6-di-t-butylphenol]
- inhibition in vivo at 50 µg/ear [3]: 64.9%
- ED35 [2]: 24.5 mg/kg
- inhibition in vivo at 100 mg/kg [2]: 92.2%

SMILES: CC(C)(C)c1cc(C(=O)CC2OCCS2)cc(C(C)(C)C)c1O (stereo not shown) [Compound 32, 4-(2'-(1",3"-oxathiolane)acetyl)-2,6-di-t-butylphenol]
- inhibition in vivo at 10 % [1]: 44.5%
- inhibition in vivo at 100 mg/kg [2]: 50.8%

SMILES: C#CC(=O)/C=C/c1cc(C(C)(C)C)c(O)c(C(C)(C)C)c1 [Compound 27, 4-((E)-1'-penten-4'-yn-3'-one)-2,6-di-t-butylphenol]
- inhibition in vivo at 50 µg/ear [3]: 34.8%
- ID50 [3]: 52.4 ug/ear
- ED35 [2]: 28.3 mg/kg
- inhibition in vivo at 100 mg/kg [2]: 62.8%

SMILES: C#CCCCC(=O)c1cc([Si](C)(C)C)c(O)c([Si](C)(C)C)c1 [Compound 20, 4-(5'-hexynoyl)-2,6-bis-trimethylsilylphenol]
- ED35 [2]: 34.2 mg/kg
- inhibition in vivo at 100 mg/kg [2]: 73.1%

SMILES: C#CC[C@@H](C)CC(=O)c1cc(C(C)(C)C)c(O)c(C(C)(C)C)c1 [Compound 18, 4-((R)-(+)-3'-methyl-5'-hexynoyl)-2,6-di-t-butylphenol]
- inhibition in vivo at 10 % [1]: 54.5%
- ED35 [2]: 2.5 mg/kg
- inhibition in vivo at 100 mg/kg [2]: 72%

SMILES: COC(Cc1cc(C(C)(C)C)c(O)c(C(C)(C)C)c1)OC [Compound 33, 4-(2',2'-dimethoxyethyl)-2,6-di-t-butylphenol]
- inhibition in vivo at 10 % [1]: 54.1%

SMILES: CC(C)(C)c1cc(C(=O)CC2OCCO2)cc(C(C)(C)C)c1O [Compound 30, 4-(2'-(1",3"-dioxolane)acetyl)-2,6-di-t-butylphenol]
- inhibition in vivo at 10 % [1]: 33.4%
- inhibition in vivo at 50 µg/ear [3]: 69.1%
- ID50 [3]: 29.5 ug/ear
- ED35 [2]: 35.2 mg/kg
- inhibition in vivo at 100 mg/kg [2]: 72.8%

SMILES: CCOC(CC(=O)c1cc(C(C)(C)C)c(O)c(C(C)(C)C)c1)OCC [Compound 31, 4-(3',3'-diethoxypropionyl)-2,6-di-t-butylphenol]
- inhibition in vivo at 50 µg/ear [3]: 82.8%
- ID50 [3]: 15.3 ug/ear

SMILES: C#CCC(C(=O)c1cc(C(C)(C)C)c(O)c(C(C)(C)C)c1)C(OC)OC (stereo not shown) [Compound 7, 4-(2'-dimethoxymethyl-4'-pentynoyl)-2,6-di-t-butylphenol]
- inhibition in vivo at 10 % [1]: 40.9%
- inhibition in vivo at 100 mg/kg [2]: 53.6%

SMILES: C#CC(C)(C)CC(=O)c1cc(C(C)(C)C)c(O)c(C(C)(C)C)c1 [Compound 9, 4-(3',3'-dimethyl-4'-pentynoyl)-2,6-di-t-butylphenol]
- inhibition in vivo at 10 % [1]: 23.2%
- inhibition in vivo at 100 mg/kg [2]: 41.7%

SMILES: C#CCCCCC(=O)c1cc(C(C)(C)C)c(O)c(C(C)(C)C)c1 [Compound 23, 4-(6'-heptynoyl)-2,6-di-t-butylphenol]
- ED35 [2]: 17.4 mg/kg
- inhibition in vivo at 100 mg/kg [2]: 67.9%

SMILES: C#CCC(C)(C)C(=O)c1cc(C(C)(C)C)c(O)c(C(C)(C)C)c1 [Compound 8, 4-(2', 2'-dimethyl-4'-pentynoyl)-2,6-di-t-butylphenol]
- inhibition in vivo at 10 % [1]: 38.3%
- inhibition in vivo at 100 mg/kg [2]: 50.4%

SMILES: C#CCCCC(=O)c1cc(C(C)(C)C)cc(C(C)(C)C)c1 [Compound 19, 1-(5'-hexynoyl)-3,5-di-t-butylbenzene]
- ED35 [2]: 45.3 mg/kg
- inhibition in vivo at 100 mg/kg [2]: 71.7%

SMILES: C=CCCC(=O)/C=C/c1cc(C(C)(C)C)c(O)c(C(C)(C)C)c1 [Compound 28, 4-((E)-1',6'-heptadiene-3'-one)-2,6-di-t-butylphenol]
- inhibition in vivo at 10 % [1]: 37.4%

SMILES: C#CCCCC(=O)c1cc([Si](C)(C)C)cc([Si](C)(C)C)c1 [Compound 21, 1-(5'-hexynoyl)-3,5-bis-trimethylsilylbenzene]
- ED35 [2]: ~90 mg/kg
- inhibition in vivo at 100 mg/kg [2]: 41.7%

SMILES: C#CC(=O)c1cc(C(C)(C)C)c(O)c(C(C)(C)C)c1 [Compound 1, 4-propynoyl-2,6-di-t-butylphenol]
- ED35 [2]: 40 mg/kg
- inhibition in vivo at 100 mg/kg [2]: 65%

SMILES: C#CCCCC(O)c1cc(C(C)(C)C)c(O)c(C(C)(C)C)c1 (stereo not shown) [Compound 14, 4-(1'-hydroxy-5'-hexynyl)-2,6-di-t-butylphenol]
- ED35 [2]: 30 mg/kg
- inhibition in vivo at 100 mg/kg [2]: 54.4%

SMILES: C#CC[C@H](C)CC(=O)c1cc(C(C)(C)C)c(O)c(C(C)(C)C)c1 [Compound 17, 4-((S)-(-)-3'-methyl-5'-hexynoyl)-2,6-di-t-butylphenol]
- inhibition in vivo at 10 % [1]: 59.5%
- ED35 [2]: 4.4 mg/kg
- inhibition in vivo at 100 mg/kg [2]: 75.5%
